Drawing on PubChem BioAssay AID1259408 (Genetic Toxicology Data Bank (GENE-TOX), 2018), this text covers mutagenic call and call for 29 molecules.

The source made the active and inactive calls. The rule behind the calls is not given here.

This data set deals with GENE-TOX genotoxicity assays, various organisms and cells. The data set is described as follows: GENE-TOX mutagenicity studies. The note with it: for call: Assay Type: In vivo carcinogenicity studies.
Setting [1] is: Species/Cell Type: Salmonella typhimurium (one or more of the five standard strains: TA98, TA100, TA1535, TA1537, and TA1538), Assay Type: Histidine reverse gene mutation, Ames assay, Assay Code: SALT, Evaluation Type: Evaluation A (Pre-1980).
The mark [2] stands for this setting: Species/Cell Type: Human lymphocytes, Assay Type: Sister-chromatid exchange (SCE) in vitro, Assay Code: SCLT, Evaluation Type: Evaluation B (Post-1980).
[3] abbreviates: Species/Cell Type: Human, Assay Type: Sister-chromatid exchange (SCE) in vitro, Assay Code: SC1T, Evaluation Type: Evaluation B (Post-1980).
[4] abbreviates: Species/Cell Type: Salmonella typhimurium, Assay Type: Forward and reverse gene mutation, host-mediated assay, Assay Code: HMA+, Evaluation Type: Evaluation A (Pre-1980).
Setting [5] is: Species/Cell Type: Salmonella typhimurium (one or more of the five standard strains: TA98, TA100, TA1535, TA1537, and TA1538), Assay Type: Histidine reverse gene mutation, Ames assay, Assay Code: SAL+*, Activation: With metabolic activation, Evaluation Type: Evaluation A (Pre-1980).
Where [6] appears, read: Species/Cell Type: Nonhuman, Assay Code: CCG+, Evaluation Type: Evaluation A (Pre-1980).
Where [7] appears, read: Species/Cell Type: Mammalian polychromatic erythrocytes, Assay Type: Micronucleus test, chromosome aberrations, Assay Code: MNT+, Evaluation Type: Evaluation B (Post-1980).
[8] abbreviates: Species/Cell Type: Nonhuman, Assay Type: Sister-chromatid exchange (SCE) in vitro, Assay Code: SC2+D, Dose Response: With dose response, Evaluation Type: Evaluation A (Pre-1980).
Where [9] appears, read: Species/Cell Type: Salmonella typhimurium (one or more of the five standard strains: TA98, TA100, TA1535, TA1537, and TA1538), Assay Type: Histidine reverse gene mutation, Ames assay, Assay Code: SAL-, Evaluation Type: Evaluation A (Pre-1980).
[10] abbreviates: Species/Cell Type: Syrian hamster embryo (SHE) cells, Assay Type: Cell transformation, clonal assay, Assay Code: CTC+, Evaluation Type: Evaluation A (Pre-1980).

As for `O=C(COc1ccc(Br)cc1CN1CCCCC1)N/N=C/c1ccccc1O`, under “Species/Cell Type: Saccharomyces cerevisiae, Assay Type: Reverse gene mutation, Assay Code: YERT, Evaluation Type: Evaluation A (Pre-1980)”, the mutagenic call was “no conclusion”. As to `ClC(Cl)=C(Cl)Cl`, the mutagenic call runs as follows: (Species/Cell Type: Fischer rat embryo (RLV/1706) cells, Assay Type: Cell transformation, viral enhanced, Assay Code: CTR+, Evaluation Type: Evaluation A (Pre-1980)) “active; positive”; (Species/Cell Type: Saccharomyces cerevisiae, Assay Type: Mitotic recombination or gene conversion, Assay Code: YEC+, Evaluation Type: Evaluation A (Pre-1980)) “active; positive”; (Species/Cell Type: Saccharomyces cerevisiae, Assay Type: Mitotic recombination or gene conversion, Assay Code: YEH+, Evaluation Type: Evaluation A (Pre-1980)) “active; positive”; (Species/Cell Type: Saccharomyces cerevisiae, Assay Type: Reverse gene mutation, Assay Code: YER+, Evaluation Type: Evaluation A (Pre-1980)) “active; positive”; (Species/Cell Type: Syrian hamster embryo (SA7/SHE) cells, Assay Type: Cell transformation, viral enhanced, Assay Code: CT7-, Evaluation Type: Evaluation A (Pre-1980)) “inactive; negative”. Also, the call (Species/Cell Type: Nonhuman, Assay Code: CCG+L, Evaluation Type: Evaluation A (Pre-1980)) was “active; positive”. Regarding `COC(=O)[C@@]12Oc3ccc(-c4ccc5c(c4O)C(O)=C4C(=O)C[C@H](C)[C@@H](O)[C@]4(C(=O)OC)O5)c(O)c3C(O)=C1C(=O)C[C@H](C)[C@H]2O`, the mutagenic call under setting [1] is reported as “no conclusion”. For `CC(C)NNC(=O)c1ccncc1`, where the note is “Species/Cell Type: Nonhuman, Assay Type: Sister-chromatid exchange (SCE) in vivo, Assay Code: SC3+, Evaluation Type: Evaluation B (Post-1980)”, the mutagenic call is “active; positive”. Turning to `c1nnc(NCNc2nncs2)s1`, under “Species/Cell Type: Mammalian polychromatic erythrocytes, Assay Type: Micronucleus test, chromosome aberrations, Assay Code: MNT+U, Dose Response: Unconfirmed positive response, Evaluation Type: Evaluation B (Post-1980)”, the mutagenic call is “active; positive”. With `COC(=O)NC(=S)Nc1ccccc1N`, the mutagenic call is “active; positive” (Species/Cell Type: Aspergillus nidulans, Assay Type: Aneuploidy, chromosome aberrations, Assay Code: ASN+, Evaluation Type: Evaluation A (Pre-1980)) and “inactive; negative” (Species/Cell Type: Aspergillus nidulans, Assay Type: Mitotic recombination, Assay Code: ASG-, Evaluation Type: Evaluation A (Pre-1980)).

In the case of `CNC(N)=O`, the mutagenic call was “no conclusion” under setting [2], “no conclusion” under setting [3] and “active; positive” under setting [4]. In the case of `CC(=O)Nc1nc(/C=C/c2ccc([N+](=O)[O-])o2)cs1`, the mutagenic call (Species/Cell Type: Salmonella typhimurium (one or more of the five standard strains: TA98, TA100, TA1535, TA1537, and TA1538), Assay Type: Histidine reverse gene mutation, Ames assay, Assay Code: SAL+, Evaluation Type: Evaluation A (Pre-1980)) was “active; positive”. Regarding `COc1cc2c(c3oc4cccc(OC(C)=O)c4c(=O)c13)C1C=COC1O2` (stereo unspecified), the mutagenic call under setting [1] is “no conclusion”. Consider `Cc1cc(O)c(C(C)C)cc1O`, for which the mutagenic call (Species/Cell Type: Allium cepa, Assay Type: Chromosome aberrations, Assay Code: ALC-, Evaluation Type: Evaluation A (Pre-1980)) is “inactive; negative”. Take `O=C(O)/C=C/c1ccc(O)c(O)c1`: the mutagenic call (Species/Cell Type: Mammalian polychromatic erythrocytes, Assay Type: Micronucleus test, chromosome aberrations, Assay Code: MNTT, Evaluation Type: Evaluation B (Post-1980)) is “no conclusion”. With `Nc1cc2c3ccccc3ccc2c2ccccc12`, the mutagenic call under setting [5] is “active; positive”.

Take `O=C1C2(Cl)C3(Cl)C4(Cl)C(Cl)(Cl)C5(Cl)C3(Cl)C1(Cl)C5(Cl)C24Cl` (stereo unspecified): the mutagenic call (Species/Cell Type: Human, Sex: Male, Assay Type: Sperm morphology, Assay Code: SPHT, Evaluation Type: Evaluation A (Pre-1980)) is “no conclusion”. Also, the call under setting [6] is “active; positive”.

Take `COc1cc2c(c(O)c1OC)C13CCC(OC)CC1N(CC3)C2` (stereo unspecified): the mutagenic call under setting [7] is “active; positive”. Turning to `Cc1c2ccccc2cc2c3c(ccc12)C(O)C(O)C=C3` (stereo unspecified), the mutagenic call reads like this: (Species/Cell Type: Mouse prostate cells, Assay Type: Cell transformation, Assay Code: CTM+, Evaluation Type: Evaluation A (Pre-1980)) “active; positive”; under setting [8], “active; positive”; under setting [5], “active; positive”. In the case of `Oc1ccc(O)cc1`, the mutagenic call by setting is: (Species/Cell Type: Allium cepa, Assay Type: Chromosome aberrations, Assay Code: ALC+, Evaluation Type: Evaluation A (Pre-1980)) “active; positive”; (Species/Cell Type: Human lymphocytes, Assay Type: Sister-chromatid exchange (SCE) in vitro, Assay Code: SCL+D, Dose Response: With dose response, Evaluation Type: Evaluation B (Post-1980)) “active; positive”; (Species/Cell Type: Human, Assay Type: Sister-chromatid exchange (SCE) in vitro, Assay Code: SC1+D, Dose Response: With dose response, Evaluation Type: Evaluation B (Post-1980)) “active; positive”; under setting [7], “active; positive”. For `CCN(Cc1cccc(S(=O)(=O)O)c1)c1ccc(C(=C2C=CC(=[N+](CC)Cc3cccc(S(=O)(=O)[O-])c3)C=C2)c2ccc(S(=O)(=O)O)cc2)cc1`, the mutagenic call is, setting by setting: (Species/Cell Type: Bacillus subtilis (H17 vs M45), Assay Type: Rec-assay, spot test, DNA effects (bacterial DNA repair), Assay Code: REWT, Evaluation Type: Evaluation A (Pre-1980)) “no conclusion”; (Species/Cell Type: Bacillus subtilis (H17 vs M45T), Assay Type: Rec-assay, spot test, DNA effects (bacterial DNA repair), Assay Code: REXT, Evaluation Type: Evaluation A (Pre-1980)) “no conclusion”; under setting [9], “inactive; negative”. As to `ClCOCCl`, the call under setting [6] was “active; positive”. As to `O=C(CCN1CCCCC1)c1ccc2c(c1)OCO2`, under setting [4], the mutagenic call is “active; positive”. On to `C1=Cc2c(ccc3c2ccc2ccccc23)C1`, for which, under setting [5], the mutagenic call was “active; positive”. Consider `Cc1ccc2cc3ccc4ccccc4c3cc2c1`, for which the mutagenic call (Species/Cell Type: Nonhuman, Assay Type: Sister-chromatid exchange (SCE) in vitro, Assay Code: SC2+, Evaluation Type: Evaluation B (Post-1980)) was “active; positive”; the mutagenic call under setting [5] is “active; positive”; the mutagenic call under setting [10] was “active; positive”. Consider `CCCNC(=O)NS(=O)(=O)c1ccc(Cl)cc1`, for which the mutagenic call is “active; positive” (Species/Cell Type: Human lymphocytes, Assay Type: Sister-chromatid exchange (SCE) in vivo, Assay Code: SCY+, Evaluation Type: Evaluation B (Post-1980)); “active; positive” (Species/Cell Type: Mammalian polychromatic erythrocytes, Assay Type: Micronucleus test, chromosome aberrations, Assay Code: MNT+, Evaluation Type: Evaluation A (Pre-1980)); “active; positive” under setting [8]; “active; positive” (Species/Cell Type: Nonhuman, Assay Type: Sister-chromatid exchange (SCE) in vivo, Assay Code: SC3+D, Dose Response: With dose response, Evaluation Type: Evaluation B (Post-1980)). Consider `[Cl][Ti]([Cl])[Cl]`, for which the mutagenic call (Species/Cell Type: Nonhuman, Assay Type: Sister-chromatid exchange (SCE) in vitro, Assay Code: SC2-, Evaluation Type: Evaluation B (Post-1980)) was “inactive; negative”. `Cn1sccc1=O`: where the note is “Species/Cell Type: Mammalian polychromatic erythrocytes, Assay Type: Micronucleus test, chromosome aberrations, Assay Code: MNT-, Evaluation Type: Evaluation B (Post-1980)”, the mutagenic call was “inactive; negative”. In the case of `CCOS(=O)(=O)CCl`, the mutagenic call (Species/Cell Type: Schizosaccharomyces pombe, Assay Type: Reverse gene mutation, Assay Code: YEZ+, Evaluation Type: Evaluation A (Pre-1980)) was “active; positive”. Consider `CCC(=O)Nc1ccc(Cl)c(Cl)c1`, for which the mutagenic call was “inactive; negative” (Species/Cell Type: Aspergillus nidulans, Assay Type: Forward gene mutation, Assay Code: ASF-, Evaluation Type: Evaluation A (Pre-1980)); “active; positive” (Species/Cell Type: Bacillus subtilis (H17 vs M45), Assay Type: Rec-assay, spot test, DNA effects (bacterial DNA repair), Assay Code: REW+, Evaluation Type: Evaluation A (Pre-1980)); “inactive; negative” (Species/Cell Type: Escherichia coli polA (W3119 vs P3478), Assay Type: Rec-assay, DNA effects (bacterial DNA repair), Assay Code: RE1-, Evaluation Type: Evaluation A (Pre-1980)); “inactive; negative” (Species/Cell Type: Human diploid fibroblasts, Assay Type: Unscheduled DNA synthesis (UDS) in vitro, DNA effects, Assay Code: UDH-, Evaluation Type: Evaluation A (Pre-1980)); “inactive; negative” (Species/Cell Type: Saccharomyces cerevisiae, Assay Type: Mitotic recombination or gene conversion, Assay Code: YEH-, Evaluation Type: Evaluation A (Pre-1980)); “inactive; negative” under setting [9]. Consider `CC(C)CCC[C@@H](C)[C@H]1CC[C@H]2[C@@H]3C[C@@H]4O[C@@]45C[C@@H](O)CC[C@]5(C)[C@H]3CC[C@]12C`, for which the mutagenic call under setting [10] is “active; positive”.

For the molecule `Cc1ncc(CO)c(C(=O)O)c1O`, the mutagenic call is listed as “no conclusion” under setting [2] and “no conclusion” under setting [3]. As for `CC(C)CN(N=O)C(N)=O`, the mutagenic call (Species/Cell Type: Arabidopsis species, Assay Type: Gene mutation, Assay Code: ARM+D, Dose Response: With dose response, Evaluation Type: Evaluation A (Pre-1980)) is “active; positive”.
